In US20080004296A1, “Organic Compounds” (priority 2004, published 2008):

Test system: tobacco-smoke-enhanced cough response to 0.3 M citric acid
Experiment: Citric acid-induced cough and Penh in tobacco smoke-exposed conscious guinea-pigs (plethysmograph)
Type: in vivo, guinea-pig
Conditions: 1 hour prior to citric acid challenge, mean±s.e. mean; for percentage inhibition of tobacco-smoke-enhanced cough: vs vehicle
Method: Male Dunkin-Hartley guinea-pigs (350-550 g) are exposed to either air or tobacco smoke generated by four research cigarettes, (2R4F; Kentucky, USA) for a 3 second puff every 30 sec, for 2 days. At 24 hours after the last exposure conscious, unrestrained animals are placed in a plethysmograph chamber (Buxco, USA) and challenged with an aerosol of 0.3 M citric acid in 0.9% saline for 10 minutes. Cough and Penh AUC (measure of bronchoconstriction) are recorded during the 10 minute exposure and for a further 10 minutes after exposure using the method described in El-Hashim A. et al. Pulmonary Pharmacology & Therapeutics 17(1) (2004) pages 11-18.
To evaluate the effects of 2-(2-Hydroxy-ethylcarbamoyloxymethyl)-5,7-dimethyl-3-(2-methylsulfamoyl-phenyl)-4-oxo-3,4-dihydro-quinazoline-6-carboxylic acid ethyl ester on the enhanced cough response, animals are dosed subcutaneously with the compound (0.3-10 mg/kg, n=3-10) or vehicle (3:1 PEG200:saline, n=10) at 1 hour prior to citric acid challenge. The percentage inhibition of the cough response following compound administration compared with vehicle administration in tobacco smoke-exposed animals is determined. Data are expressed as mean±s.e. mean and significance is defined as p<0.05 (ANOVA & Dunnett's multiple comparison test).

[1] = 3 mg/kg subcutaneously, significant

SMILES: CCOC(=O)c1c(C)cc2nc(COC(=O)NCCO)n(-c3ccccc3S(=O)(=O)NC)c(=O)c2c1C [2-(2-Hydroxy-ethylcarbamoyloxy-methyl)-5,7-dimethyl-3-(2-methylsulfamoyl-phenyl)-4-oxo-3,4-dihydro-quinazoline-6-carboxylic acid ethyl ester]
- inhibition of baseline Penh value (measure of bronchoconstriction) (0.3 mg/kg subcutaneously): 48±17%
- percentage inhibition of tobacco-smoke-enhanced cough (0.3 mg/kg subcutaneously): 18±14%
- inhibition of baseline Penh value (measure of bronchoconstriction) (1 mg/kg subcutaneously): 55±19%
- percentage inhibition of tobacco-smoke-enhanced cough (1 mg/kg subcutaneously, significant): 49±17%
- inhibition of baseline Penh value (measure of bronchoconstriction) [1]: 77±10%
- percentage inhibition of tobacco-smoke-enhanced cough [1]: 80±13%
- inhibition of baseline Penh value (measure of bronchoconstriction) (10 mg/kg subcutaneously): 86±2%
- percentage inhibition of tobacco-smoke-enhanced cough (10 mg/kg subcutaneously, significant): 100±0%
